The text below walks through data of article PMC13385394, “Cryo-EM Structure of the TRPC1/5 Heteromer Enables Design of Antidepressant and Anxiolytic Drug with Reduced Side Effects” (Nature Communications, 2026).

“Also recorded” adds a separate entry of the source.

In series [1] the test system is diet-induced obesity (DIO) mice. Nature of the series: Diet-induced obesity (DIO) model, body weight and food intake. Type of series: in vivo, mouse. The conditions noted are these: 11 days once daily, HC-070 and JD03-02 10 mg/kg i.g., Semaglutide 0.123 mg/kg s.c. As to the method:
A maximum of five mice were housed per cage during the acclimatization period, and three mice per cage during the experimental period. […] The day of administration was defined as day 1 (D1) of the experiment, with a single dose/day administered for 11 consecutive days. Daily observations were made on the animals’ general condition. Body weight was measured on days 1, 3, 5, 7, 9, and 11 post-administrations. Food intake was measured on days 1, 3, 5, 7, and 9 post-administrations by calculating the difference between the amount of food provided and the amount remaining in the cage, divided by the number of animals in the cage to determine the average food intake per mouse. The cumulative food intake during the experiment was calculated by summing the food intake measurements taken on different days.

The subject of the next series is healthy C57BL/6J mice. The following applies: mouse, in vivo.
A further series relates to mCPP-induced anxiety. In words: Open-field test (OFT), mCPP-induced anxiety model. The following applies: mCPP-induced anxiety-like mice; single dose.
Series [2] has as its system CUMS-induced depressive-like behaviors. Nature of the series: Forced swim test (FST) in CUMS model. The following applies: CUMS mice; 14 days once-daily oral; vs vehicle. Type of series: in vivo, mouse. As to the method: The stressors included food and water deprivation, foot shock, wet bedding, cage tilting, restraint, shaking, and olfactory stimulation. These seven stressors were randomly applied each week to ensure unpredictability. The stress induction was maintained continuously for 28 days. Following model establishment, the tail suspension test (TST) was performed to confirm the successful induction of depressive-like behaviors. Mice that met the criteria were randomly assigned to experimental groups. Chronic Treatment: Mice were treated daily for 14 consecutive days. The SPT was conducted on day 11, and the forced swimming test (FST) was performed on day 14.

Series [3] has the same test system. Nature of the series: Sucrose preference test (SPT) in CUMS model. Type of series: in vivo, mouse. The following applies: CUMS mice. The procedure: The stressors included food and water deprivation, foot shock, wet bedding, cage tilting, restraint, shaking, and olfactory stimulation. These seven stressors were randomly applied each week to ensure unpredictability. The stress induction was maintained continuously for 28 days. Following model establishment, the tail suspension test (TST) was performed to confirm the successful induction of depressive-like behaviors. Mice that met the criteria were randomly assigned to experimental groups.
Acute Treatment: A single dose of the test compound was administered, followed by the sucrose preference test (SPT).
Chronic Treatment: Mice were treated daily for 14 consecutive days. The SPT was conducted on day 11, and the forced swimming test (FST) was performed on day 14.
Mice were acclimated to 1% sucrose solution and plain water for 2 days. On the second day, the positions of the sucrose solution and water were swapped to eliminate positional bias. […] Mice were provided with pre-weighed 1% sucrose solution and plain water. […] Sucrose preference (%) was calculated as Sucrose Preference = A/(A + B)×100.

Series [4] concerns the molecule itself. In words: cryo-EM structure; TRPC1/5 heteromer co-expressed, purified in tandem on Strep-Tactin and anti-Flag M2 resin and Superose 6 (25 mM Hepes pH 7.5, 150 mM NaCl, 1 mM DTT, LMNG/CHS/GDN); single-particle cryo-EM, 2.84 Å overall.

Experimental for healthy C57BL/6J mice: The Open-Field test (OFT) was utilized to evaluate the autonomous behavior, exploratory tendencies, and anxiety levels of experimental animals in a new environment. Each mouse was placed at the center of the container and given a 10-min exploration period. Before the test, the animals were acclimated to the experimental setting for 60 min. […] This cleaning procedure aimed to reduce the risk of contamination and prevent any misleading experimental results due to olfactory stimuli. Anxiety levels and exploratory behavior were assessed by measuring the time spent in the central area, the number of entries into the central area, and the total distance traveled by the mice.

On to `Cn1c(=O)n(CCCO)c(=O)c2c1nc(Oc1cccc(Cl)c1)n2Cc1ccc(Cl)cc1` [HC-070], for which, in series [1], the body weight entry is “significantly increased body weight” and the food intake result is listed as “elevated food intake”. Besides, the “OFT total distance traveled” value with healthy C57BL/6J mice is “increased total distance traveled”.
`CN1C(=O)CN=C(c2ccccc2)c2cc(Cl)ccc21` [diazepam, reference compound]: the “OFT total distance traveled” value with mCPP-induced anxiety is listed as “no significant effect”.
Regarding `CNCCC(Oc1ccc(C(F)(F)F)cc1)c1ccccc1` (stereo not shown) [fluoxetine, reference compound], the “immobility (FST), repeated dosing” value in series [2] was “reduced immobility”. Moreover, the “sucrose intake (SPT), repeated dosing” value in series [3] (11 days once-daily oral, vs vehicle) is listed as “significantly improved sucrose intake”. Further, in series [3] (single oral dose, JD03-02 30 mg/kg), the “sucrose preference (SPT), single dose” value is on record as “no immediate effect; also recorded: ineffective”.
Turning to Semaglutide [reference compound], in series [1], the body weight result is “effectively reduced both weight and appetite”; the food intake entry was “effectively reduced both weight and appetite”.

B1: C-terminal truncated (210 residues) mouse TRPC5 with triple Flag tag and MBP on its N terminus (domain or fragment, UniProt Q9QX29 1-765, looked up)
chain: MAQLYYKKVNYSPYRDRIPLQIVRAETELSAEEKAFLSAVEKGDYATVKQALQEAEIYYNVNINCMDPLGRSALLIAIENENLEIMELLLNHSVYVGDALLYAIRKEVVGAVELLLSYRKPSGEKQVPTLMMDTQFSEFTPDITPIMLAAHTNNYEIIKLLVQKRVTIPRPHQIRCNCVECVSSSEVDSLRHSRSRLNIYKALASPSLIALSSEDPILTAFRLGWELKELSKVENEFKAEYEELSQQCKLFAKDLLDQARSSRELEIILNHRDDHSEELDPQKYHDLAKLKVAIKYHQKEFVAQPNCQQLLATLWYDGFPGWRRKHWVVKLLTCMTIGFLFPMLSIAYLISPRSNLGLFIKKPFIKFICHTASYLTFLFMLLLASQHIVRTDLHVQGPPPTVVEWMILPWVLGFIWGEIKEMWDGGFTEYIHDWWNLMDFAMNSLYLATISLKIVAYVKYNGSRPREEWEMWHPTLIAEALFAISNILSSLRLISLFTANSHLGPLQISLGRMLLDILKFLFIYCLVLLAFANGLNQLYFYYETRAIDEPNNCKGIRCEKQNNAFSTLFETLQSLFWSVFGLLNLYVTNVKARHEFTEFVGATMFGTYNVISLVVLLNMLIAMMNNSYQLIADHADIEWKFARTKLWMSYFDEGGTLPPPFNIIPSPKSFLYLGNWFNNTFCPKRDPDGRRRRHNLRSFTERHADSLIQNQHYQEVIRNLVKRYVAAMIRNSKTNEGLTEENFKELKQDISSFRYEVLDLLGNRK
notes: TRPC5, mouse, lacking the 210 C-terminal residues; Three copies of this chain stand in the heterotetramer with one TRPC1 subunit; The results call the complex 'human TRPC1/5' although the TRPC5 construct is mouse; also called Cryo-TRPC5; truncated mTRPC5; not shown: triple Flag, N-terminal, kept
B1: the binding result in series [4] is reported as “binds”.
